In ChEMBL document CHEMBL1201861, “Genomics of Drug Sensitity in Cancer screening data, Wellcome Trust Sanger Institute”:

Test system: NCI-H1355;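 note: growth inhibition of human NCI-H1355 cells, read out by a cell viability assay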
Test: cells
Assay type: functional, cell-based, Homo sapiens
Settings: Homo sapiens, NCI-H1355
Description: SANGER: Inhibition of human NCI-H1355 cell growth in a cell viability assay.

Compound | IC50 [µM]
Nc1cccc2c1CN(C1CCC(=O)NC1=O)C2=O (centres undefined) [LENALIDOMIDE] | > 5

Test system: ES3;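 note: growth inhibition of ES3 cells, read out with a cell viability assay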
Test: cells
Assay type: functional, cell-based, Homo sapiens
Settings: Homo sapiens, ES3
Description: SANGER: Inhibition of human ES3 cell growth in a cell viability assay.

Compound | IC50 [µM]
Nc1cccc2c1CN(C1CCC(=O)NC1=O)C2=O (centres undefined) [LENALIDOMIDE] | > 5

Test system: HH
Test: cells
Assay type: functional, cell-based, Homo sapiens
Settings: Homo sapiens, HH
Description: SANGER: Inhibition of human HH cell growth in a cell viability assay.

Compound | IC50 [µM]
Nc1cccc2c1CN(C1CCC(=O)NC1=O)C2=O (centres undefined) [LENALIDOMIDE] | > 5

Test system: EW-13;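 note: growth inhibition of EW-13 cells, read out with a cell viability assay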
Test: cells
Assay type: functional, cell-based, Homo sapiens
Settings: Homo sapiens, EW-13
Description: SANGER: Inhibition of human EW-13 cell growth in a cell viability assay.

Compound | IC50 [µM]
Nc1cccc2c1CN(C1CCC(=O)NC1=O)C2=O (centres undefined) [LENALIDOMIDE] | > 5

Test system: C2BBe1;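 note: growth inhibition of C2BBe1 cells, read out through a viability assay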
Test: cells
Assay type: functional, cell-based, Homo sapiens
Settings: Homo sapiens, C2BBe1
Description: SANGER: Inhibition of human C2BBe1 cell growth in a cell viability assay.

Compound | IC50 [µM]
Nc1cccc2c1CN(C1CCC(=O)NC1=O)C2=O (centres undefined) [LENALIDOMIDE] | > 5

Test system: DOHH-2;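 note: growth inhibition of human DOHH-2 cells, read out with a cell viability assay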
Test: cells
Assay type: functional, cell-based, Homo sapiens
Settings: Homo sapiens, DOHH-2
Description: SANGER: Inhibition of human DOHH-2 cell growth in a cell viability assay.

Compound | IC50 [µM]
Nc1cccc2c1CN(C1CCC(=O)NC1=O)C2=O (centres undefined) [LENALIDOMIDE] | > 5

Test system: NCI-H526;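 note: growth inhibition of the human NCI-H526 cell line, measured by a cell viability assay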
Test: cells
Assay type: functional, cell-based, Homo sapiens
Settings: Homo sapiens, NCI-H526
Description: SANGER: Inhibition of human NCI-H526 cell growth in a cell viability assay.

Compound | IC50 [µM]
Nc1cccc2c1CN(C1CCC(=O)NC1=O)C2=O (centres undefined) [LENALIDOMIDE] | > 5

Test system: K5
Test: cells
Assay type: functional, cell-based, Homo sapiens
Settings: Homo sapiens, K5
Description: SANGER: Inhibition of human K5 cell growth in a cell viability assay.

Compound | IC50 [µM]
Nc1cccc2c1CN(C1CCC(=O)NC1=O)C2=O (centres undefined) [LENALIDOMIDE] | > 5

Test system: NMC-G1;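 note: growth inhibition of the NMC-G1 cell line, measured with a cell viability read-out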
Test: cells
Assay type: functional, cell-based, Homo sapiens
Settings: Homo sapiens, NMC-G1
Description: SANGER: Inhibition of human NMC-G1 cell growth in a cell viability assay.

Compound | IC50 [µM]
Nc1cccc2c1CN(C1CCC(=O)NC1=O)C2=O (centres undefined) [LENALIDOMIDE] | > 5

Test system: JVM-3;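 note: growth inhibition of human JVM-3 cells, read out with a cell viability assay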
Test: cells
Assay type: functional, cell-based, Homo sapiens
Settings: Homo sapiens, JVM-3
Description: SANGER: Inhibition of human JVM-3 cell growth in a cell viability assay.

Compound | IC50 [µM]
Nc1cccc2c1CN(C1CCC(=O)NC1=O)C2=O (centres undefined) [LENALIDOMIDE] | > 5

Test system: ATN-1;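 note: growth inhibition of human ATN-1 cells, read out with a cell viability assay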
Test: cells
Assay type: functional, cell-based, Homo sapiens
Settings: Homo sapiens, ATN-1
Description: SANGER: Inhibition of human ATN-1 cell growth in a cell viability assay.

Compound | IC50 [µM]
Nc1cccc2c1CN(C1CCC(=O)NC1=O)C2=O (centres undefined) [LENALIDOMIDE] | > 5

Test system: LB2518-MEL;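 note: growth inhibition of human LB2518-MEL cells, measured with a cell viability assay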
Test: cells
Assay type: functional, cell-based, Homo sapiens
Settings: Homo sapiens, LB2518-MEL
Description: SANGER: Inhibition of human LB2518-MEL cell growth in a cell viability assay.

Compound | IC50 [µM]
Nc1cccc2c1CN(C1CCC(=O)NC1=O)C2=O (centres undefined) [LENALIDOMIDE] | > 5

Test system: CAS-1;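 note: growth inhibition of CAS-1 cells, measured with a cell viability assay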
Test: cells
Assay type: functional, cell-based, Homo sapiens
Settings: Homo sapiens, CAS-1
Description: SANGER: Inhibition of human CAS-1 cell growth in a cell viability assay.

Compound | IC50 [µM]
Nc1cccc2c1CN(C1CCC(=O)NC1=O)C2=O (centres undefined) [LENALIDOMIDE] | > 5

Test system: MS-1
Test: cells
Assay type: functional, cell-based, Homo sapiens
Settings: Homo sapiens, MS-1
Description: SANGER: Inhibition of human MS-1 cell growth in a cell viability assay.

Compound | IC50 [µM]
Nc1cccc2c1CN(C1CCC(=O)NC1=O)C2=O (centres undefined) [LENALIDOMIDE] | > 5

Test system: ETK-1;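 note: growth inhibition of human ETK-1 cells, read out with a cell viability assay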
Test: cells
Assay type: functional, cell-based, Homo sapiens
Settings: Homo sapiens, ETK-1
Description: SANGER: Inhibition of human ETK-1 cell growth in a cell viability assay.

Compound | IC50 [µM]
Nc1cccc2c1CN(C1CCC(=O)NC1=O)C2=O (centres undefined) [LENALIDOMIDE] | > 5

Test system: SK-NEP-1;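 note: growth inhibition of human SK-NEP-1 cells, read out by a cell viability assay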
Test: cells
Assay type: functional, cell-based, Homo sapiens
Settings: Homo sapiens, SK-NEP-1
Description: SANGER: Inhibition of human SK-NEP-1 cell growth in a cell viability assay.

Compound | IC50 [µM]
Nc1cccc2c1CN(C1CCC(=O)NC1=O)C2=O (centres undefined) [LENALIDOMIDE] | > 5

Test system: EW-3;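 note: cell viability assay read-out, IC50 reflects inhibition of growth of the EW-3 cells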
Test: cells
Assay type: functional, cell-based, Homo sapiens
Settings: Homo sapiens, EW-3
Description: SANGER: Inhibition of human EW-3 cell growth in a cell viability assay.

Compound | IC50 [µM]
Nc1cccc2c1CN(C1CCC(=O)NC1=O)C2=O (centres undefined) [LENALIDOMIDE] | > 5

Test system: EW-11;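 note: growth inhibition of human EW-11 cells, measured with a cell viability assay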
Test: cells
Assay type: functional, cell-based, Homo sapiens
Settings: Homo sapiens, EW-11
Description: SANGER: Inhibition of human EW-11 cell growth in a cell viability assay.

Compound | IC50 [µM]
Nc1cccc2c1CN(C1CCC(=O)NC1=O)C2=O (centres undefined) [LENALIDOMIDE] | > 5

Test system: RPMI-8226
Test: cells
Assay type: functional, cell-based, Homo sapiens
Settings: Homo sapiens, RPMI-8226
Description: SANGER: Inhibition of human RPMI-8226 cell growth in a cell viability assay.

Compound | IC50 [µM]
Nc1cccc2c1CN(C1CCC(=O)NC1=O)C2=O (centres undefined) [LENALIDOMIDE] | > 5

Test system: RH-1;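 note: growth inhibition of human RH-1 cells, read out with a cell viability assay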
Test: cells
Assay type: functional, cell-based, Homo sapiens
Settings: Homo sapiens, RH-1
Description: SANGER: Inhibition of human RH-1 cell growth in a cell viability assay.

Compound | IC50 [µM]
Nc1cccc2c1CN(C1CCC(=O)NC1=O)C2=O (centres undefined) [LENALIDOMIDE] | > 5

Test system: MFM-223
Test: cells
Assay type: functional, cell-based, Homo sapiens
Settings: Homo sapiens, MFM-223
Description: SANGER: Inhibition of human MFM-223 cell growth in a cell viability assay.

Compound | IC50 [µM]
Nc1cccc2c1CN(C1CCC(=O)NC1=O)C2=O (centres undefined) [LENALIDOMIDE] | > 5

Test system: DMS-114
Test: cells
Assay type: functional, cell-based, Homo sapiens
Settings: Homo sapiens, DMS-114

Compound | IC50 [µM]
Nc1cccc2c1CN(C1CCC(=O)NC1=O)C2=O (centres undefined) [LENALIDOMIDE] | > 5

Test system: IST-SL1;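 note: growth inhibition of human IST-SL1 cells, read out with a cell viability assay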
Test: cells
Assay type: functional, cell-based, Homo sapiens
Settings: Homo sapiens, IST-SL1
Description: SANGER: Inhibition of human IST-SL1 cell growth in a cell viability assay.

Compound | IC50 [µM]
Nc1cccc2c1CN(C1CCC(=O)NC1=O)C2=O (centres undefined) [LENALIDOMIDE] | > 5

Test system: KGN;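 note: growth inhibition of KGN cells, read out with a cell viability assay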
Test: cells
Assay type: functional, cell-based, Homo sapiens
Settings: Homo sapiens, KGN
Description: SANGER: Inhibition of human KGN cell growth in a cell viability assay.

Compound | IC50 [µM]
Nc1cccc2c1CN(C1CCC(=O)NC1=O)C2=O (centres undefined) [LENALIDOMIDE] | > 5

Test system: LB771-HNC;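 note: growth inhibition of LB771-HNC human cells, read out with a cell viability assay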
Test: cells
Assay type: functional, cell-based, Homo sapiens
Settings: Homo sapiens, LB771-HNC
Description: SANGER: Inhibition of human LB771-HNC cell growth in a cell viability assay.

Compound | IC50 [µM]
Nc1cccc2c1CN(C1CCC(=O)NC1=O)C2=O (centres undefined) [LENALIDOMIDE] | 2.15

Test system: HCE-T;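 note: cell viability assay read-out, reporting inhibition of HCE-T cell growth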
Test: cells
Assay type: functional, cell-based, Homo sapiens
Settings: Homo sapiens, HCE-T
Description: SANGER: Inhibition of human HCE-T cell growth in a cell viability assay.

Compound | IC50 [µM]
Nc1cccc2c1CN(C1CCC(=O)NC1=O)C2=O (centres undefined) [LENALIDOMIDE] | > 5

Test system: KALS-1;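 note: growth inhibition of KALS-1 cells, determined with a cell viability assay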
Test: cells
Assay type: functional, cell-based, Homo sapiens
Settings: Homo sapiens, KALS-1
Description: SANGER: Inhibition of human KALS-1 cell growth in a cell viability assay.

Compound | IC50 [µM]
Nc1cccc2c1CN(C1CCC(=O)NC1=O)C2=O (centres undefined) [LENALIDOMIDE] | > 5

Test system: ALL-PO;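 note: growth inhibition of ALL-PO cells, read out by a cell viability assay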
Test: cells
Assay type: functional, cell-based, Homo sapiens
Settings: Homo sapiens, ALL-PO
Description: SANGER: Inhibition of human ALL-PO cell growth in a cell viability assay.

Compound | IC50 [µM]
Nc1cccc2c1CN(C1CCC(=O)NC1=O)C2=O (centres undefined) [LENALIDOMIDE] | > 5

Test system: P30-OHK;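 note: growth inhibition of the P30-OHK cell line, read out with a cell viability assay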
Test: cells
Assay type: functional, cell-based, Homo sapiens
Settings: Homo sapiens, P30-OHK
Description: SANGER: Inhibition of human P30-OHK cell growth in a cell viability assay.

Compound | IC50 [µM]
Nc1cccc2c1CN(C1CCC(=O)NC1=O)C2=O (centres undefined) [LENALIDOMIDE] | > 5

Test system: LB831-BLC;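 note: growth inhibition of LB831-BLC cells, read out with a cell viability assay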
Test: cells
Assay type: functional, cell-based, Homo sapiens
Settings: Homo sapiens, LB831-BLC
Description: SANGER: Inhibition of human LB831-BLC cell growth in a cell viability assay.

Compound | IC50 [µM]
Nc1cccc2c1CN(C1CCC(=O)NC1=O)C2=O (centres undefined) [LENALIDOMIDE] | > 5

Test system: LS-513
Test: cells
Assay type: functional, cell-based, Homo sapiens
Settings: Homo sapiens, LS-513
Description: SANGER: Inhibition of human LS-513 cell growth in a cell viability assay.

Compound | IC50 [µM]
Nc1cccc2c1CN(C1CCC(=O)NC1=O)C2=O (centres undefined) [LENALIDOMIDE] | > 5

Test system: BV-173
Test: cells
Assay type: functional, cell-based, Homo sapiens
Settings: Homo sapiens, BV-173
Description: SANGER: Inhibition of human BV-173 cell growth in a cell viability assay.

Compound | IC50 [µM]
Nc1cccc2c1CN(C1CCC(=O)NC1=O)C2=O (centres undefined) [LENALIDOMIDE] | > 5

Test system: NB17;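 note: growth inhibition of NB17 cells, read out with a cell viability assay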
Test: cells
Assay type: functional, cell-based, Homo sapiens
Settings: Homo sapiens, NB17
Description: SANGER: Inhibition of human NB17 cell growth in a cell viability assay.

Compound | IC50 [µM]
Nc1cccc2c1CN(C1CCC(=O)NC1=O)C2=O (centres undefined) [LENALIDOMIDE] | > 5

Test system: LAMA-84;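 note: growth inhibition of LAMA-84 cells, read out with a cell viability assay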
Test: cells
Assay type: functional, cell-based, Homo sapiens
Settings: Homo sapiens, LAMA-84
Description: SANGER: Inhibition of human LAMA-84 cell growth in a cell viability assay.

Compound | IC50 [µM]
Nc1cccc2c1CN(C1CCC(=O)NC1=O)C2=O (centres undefined) [LENALIDOMIDE] | > 5

Test system: OMC-1;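 note: growth inhibition of the OMC-1 cell line, measured by a cell viability assay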
Test: cells
Assay type: functional, cell-based, Homo sapiens
Settings: Homo sapiens, OMC-1
Description: SANGER: Inhibition of human OMC-1 cell growth in a cell viability assay.

Compound | IC50 [µM]
Nc1cccc2c1CN(C1CCC(=O)NC1=O)C2=O (centres undefined) [LENALIDOMIDE] | > 5

Test system: D-502MG
Test: cells
Assay type: functional, cell-based, Homo sapiens
Settings: Homo sapiens, D-502MG
Description: SANGER: Inhibition of human D-502MG cell growth in a cell viability assay.

Compound | IC50 [µM]
Nc1cccc2c1CN(C1CCC(=O)NC1=O)C2=O (centres undefined) [LENALIDOMIDE] | > 5

Test system: EM-2;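 note: growth inhibition of EM-2 cells, read out with a cell viability assay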
Test: cells
Assay type: functional, cell-based, Homo sapiens
Settings: Homo sapiens, EM-2
Description: SANGER: Inhibition of human EM-2 cell growth in a cell viability assay.

Compound | IC50 [µM]
Nc1cccc2c1CN(C1CCC(=O)NC1=O)C2=O (centres undefined) [LENALIDOMIDE] | > 5

Test system: MV4-11;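 note: cell viability readout measuring growth inhibition of human MV-4-11 cells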
Test: cells
Assay type: functional, cell-based, Homo sapiens, MV-4-11
Settings: Homo sapiens, MV4-11
Description: SANGER: Inhibition of human MV-4-11 cell growth in a cell viability assay.

Compound | IC50 [µM]
Nc1cccc2c1CN(C1CCC(=O)NC1=O)C2=O (centres undefined) [LENALIDOMIDE] | > 5

Test system: DEL;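 note: growth inhibition of the human DEL cell line, read out with a cell viability assay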
Test: cells
Assay type: functional, cell-based, Homo sapiens
Settings: Homo sapiens, DEL
Description: SANGER: Inhibition of human DEL cell growth in a cell viability assay.

Compound | IC50 [µM]
Nc1cccc2c1CN(C1CCC(=O)NC1=O)C2=O (centres undefined) [LENALIDOMIDE] | > 5

Test system: SK-N-DZ;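 note: growth inhibition of the cancer cell line, read out through a viability assay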
Test: cells
Assay type: functional, cell-based, Homo sapiens
Settings: Homo sapiens, SK-N-DZ
Description: SANGER: Inhibition of human SK-N-DZ cell growth in a cell viability assay.

Compound | IC50 [µM]
Nc1cccc2c1CN(C1CCC(=O)NC1=O)C2=O (centres undefined) [LENALIDOMIDE] | > 5

Test system: LS-411N
Test: cells
Assay type: functional, cell-based, Homo sapiens
Settings: Homo sapiens, LS-411N

Compound | IC50 [µM]
Nc1cccc2c1CN(C1CCC(=O)NC1=O)C2=O (centres undefined) [LENALIDOMIDE] | > 5

Test system: HCC 2998;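 note: growth inhibition of human HCC2998 cells, measured with a cell viability read-out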
Test: cells
Assay type: functional, cell-based, Homo sapiens
Settings: Homo sapiens, HCC 2998
Description: SANGER: Inhibition of human HCC2998 cell growth in a cell viability assay.

Compound | IC50 [µM]
Nc1cccc2c1CN(C1CCC(=O)NC1=O)C2=O (centres undefined) [LENALIDOMIDE] | > 5

Test system: KNS-42;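 note: growth inhibition of KNS-42 cells, read out with a cell viability assay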
Test: cells
Assay type: functional, cell-based, Homo sapiens
Settings: Homo sapiens, KNS-42
Description: SANGER: Inhibition of human KNS-42 cell growth in a cell viability assay.

Compound | IC50 [µM]
Nc1cccc2c1CN(C1CCC(=O)NC1=O)C2=O (centres undefined) [LENALIDOMIDE] | > 5

Test system: JVM-2;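 note: growth inhibition of JVM-2 cells determined by a cell viability assay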
Test: cells
Assay type: functional, cell-based, Homo sapiens
Settings: Homo sapiens, JVM-2
Description: SANGER: Inhibition of human JVM-2 cell growth in a cell viability assay.

Compound | IC50 [µM]
Nc1cccc2c1CN(C1CCC(=O)NC1=O)C2=O (centres undefined) [LENALIDOMIDE] | > 5

Test system: SH-4;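 note: growth inhibition of SH-4 cells, read out with a cell viability assay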
Test: cells
Assay type: functional, cell-based, Homo sapiens
Settings: Homo sapiens, SH-4
Description: SANGER: Inhibition of human SH-4 cell growth in a cell viability assay.

Compound | IC50 [µM]
Nc1cccc2c1CN(C1CCC(=O)NC1=O)C2=O (centres undefined) [LENALIDOMIDE] | > 5

Test system: SNU-C2B;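 note: cell viability readout used to measure compound-driven suppression of SNU-C2B cell proliferation, IC50 marking half-maximal growth inhibition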
Test: cells
Assay type: functional, cell-based, Homo sapiens
Settings: Homo sapiens, SNU-C2B
Description: SANGER: Inhibition of human SNU-C2B cell growth in a cell viability assay.

Compound | IC50 [µM]
Nc1cccc2c1CN(C1CCC(=O)NC1=O)C2=O (centres undefined) [LENALIDOMIDE] | > 5

Test system: KARPAS-45;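 note: inhibition of cell line growth, read out through a viability assay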
Test: cells
Assay type: functional, cell-based, Homo sapiens
Settings: Homo sapiens, KARPAS-45
Description: SANGER: Inhibition of human KARPAS-45 cell growth in a cell viability assay.

Compound | IC50 [µM]
Nc1cccc2c1CN(C1CCC(=O)NC1=O)C2=O (centres undefined) [LENALIDOMIDE] | > 5

Test system: NCI-N87;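 note: growth inhibition of human NCI-N87 cells, read out with a cell viability assay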
Test: cells
Assay type: functional, cell-based, Homo sapiens
Settings: Homo sapiens, NCI-N87
Description: SANGER: Inhibition of human NCI-N87 cell growth in a cell viability assay.

Compound | IC50 [µM]
Nc1cccc2c1CN(C1CCC(=O)NC1=O)C2=O (centres undefined) [LENALIDOMIDE] | > 5

Test system: MN-60;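 note: growth inhibition of the MN-60 cell line, determined with a cell viability assay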
Test: cells
Assay type: functional, cell-based, Homo sapiens
Settings: Homo sapiens, MN-60
Description: SANGER: Inhibition of human MN-60 cell growth in a cell viability assay.

Compound | IC50 [µM]
Nc1cccc2c1CN(C1CCC(=O)NC1=O)C2=O (centres undefined) [LENALIDOMIDE] | > 5
